Data: patent US20230218577A1, “USE OF HEAT SHOCK PROTEIN INHIBITORS FOR THE TREATMENT OF NEURODEVELOPMENTAL DISORDERS” (The Children's Medical Center Corporation, priority 2020, published 2023)

Tested on: cilia (ACIII) in Tsc2-sh hippocampal neurons
Assay: cilia^HCA (GFP+ ACIII+ neurons) in Tsc2-sh neurons
Format: cell-based, rat
Details: for ciliation, acute effect: 24 hrs at DIV20, concentrations that inhibited mTORC1 (8.5 μM 17-AGG, 9 μM GA, 5.5 μM rapamycin); for rescue of cilia at later ages in culture: four-day treatment between DIV16-20, endpoint DIV20
Description: To investigate how mTORC1 dysregulation due to neuronal TSC loss affected ciliation, High Content image-based Assays (HCAs) were developed for unbiased quantification of cilia and mTORC1 activity (hereafter cilia^HCA and mTORC1^HCA) in primary neurons. As an in vitro model of TSC, rat hippocampal neurons transduced with lentiviral vectors (LV) expressing a short hairpin RNA (shRNA) were used directed against either the Tsc2 (Tsc2-sh) or the luciferase gene as a control (ctrl-sh) tagged with GFP. LV-mediated Tsc2 knockdown recapitulates several in vivo manifestations observed in mouse models of TSC (Di Nardo et al., Tuberous sclerosis complex activity is required to control neuronal stress responses in an mTOR-dependent manner; J Neurosci 29, 5926-5937 (2009); Di Nardo et al., Neuronal Tsc1/2 complex controls autophagy through AMPK-dependent regulation of ULK1; Hum Mol Genet 23, 3865-3874 (2014); Ebrahimi-Fakhari et al., Impaired Mitochondrial Dynamics and Mitophagy in Neuronal Models of Tuberous Sclerosis Complex; Cell Rep 17, 1053-1070 (2016); Ercan et al., Neuronal CTGF/CCN2 negatively regulates myelination in a mouse model of tuberous sclerosis complex; The Journal of experimental medicine 214, 681-697 (2017); Nie et al., The Stress-Induced Atf3-Gelsolin Cascade Underlies Dendritic Spine Deficits in Neuronal Models of Tuberous Sclerosis Complex; J Neurosci 35, 10762-10772 (2015); Nie et al., Tsc2-Rheb signaling regulates EphA-mediated axon guidance. Nat Neurosci 13, 163-172 (2010)). In vitro phenotypes include robust TSC2 protein downregulation and mTORC1 activation as shown by the time course of increased phosphorylation of ribosomal protein S6 at serine 240/244 (pS6) (FIGS. 8A-B). Both the cilia^HCA and mTORC1^HCA were optimized as imaged-based assays, where cilia and mTORC1 activity was monitored by immunofluorescent staining of ACIII to identify cilia and pS6 as a proxy of mTORC1 activation (FIGS. 8C-F). Neurons were transduced in culture at day in vitro (DIV) 1, and cilia and mTORC1 activity were assessed in a time course experiment at DIV2, 5, 7, 13, and 20 (FIG. 2A). LV-infected neurons with cilia or with phosphorylated S6 (GFP^+ ACIII^+ and GFP^+pS6^+ respectively) were identified by automated algorithms to detect subcellular structures and their co-localization specifically optimized for each assay. In control neurons, cilia development was observed between DIV2-5, which remained stable between DIV7 and DIV20 (FIGS. 2B, D). […] Reduced ciliation was validated by manual imaging and quantification of LV-infected neurons co-labeled with ACIII/centrin (FIGS. 8G-H). No changes in size or ACIII intensity were detected in the remaining cilia of the Tsc2-sh neurons (FIGS. 8I-J).
Rat hippocampal neurons were plated at a density of 20,000/well in 96-well plates (Greiner #655090) coated with Poly-D-Lysine (PDL) at 20 μg/ml. Neurons were transduced with lentivirus and processed for immunofluorescent staining at endpoint assay by fixation with 4% PFA followed by permeabilization in ice cold 100% Methanol. Neurons were then washed 3 times in PBS/0.05% Tween (PBT) containing 50 mM glycine and blocked in 2% bovine serum albumin (Sigma) in PBT (PBT/Block) at RT. For consistent and robust identification of the LV-infected neurons, cultures of both the cilia^HCA and mTORC1^HCA were stained with GFP antibody and co-labeled with ACIII or pS6 for the identification of respectively cilia and mTORC1 activity. Primary antibodies were incubated in PBT/Block overnight. The following day, neurons were washed in PBT and incubated with secondary antibodies followed by Hoechst staining. After washing with PBT, neurons were kept in PBS buffer. Aside from primary and secondary antibody administration, all the washing for immunofluorescent staining was done using the Agilent bravo automated liquid handler. […]

[1] = four days (DIV9-13), any dose tested

SMILES	ciliation, acute effect	rescue of cilia at later ages in culture	ciliation [1]	also measured
C=CCNC1=C2C[C@@H](C)C[C@H](OC)[C@H](O)[C@@H](C)/C=C(\C)[C@H](OC(N)=O)[C@@H](OC)C=C/C=C(\C)C(=O)NC(=CC1=O)C2=O [17-AGG, 3 S,5S,6R,7S,8E,10R,11S,12E,14E)-21-(allylamino)-6-hydroxy-5,11-dimethoxy-3,7,9,15-tetramethyl-16,20,22-trioxo-17-azabicyclo[16.3.1]docosa-8,12,14,18,21-pentaen-10-yl] carbamate]	Neither of the Hsp90 inhibitors nor rapamycin rescued ciliation	Neither rapamycin nor a four-day 17-AGG treatment regimen was able to rescue the cilia		EC50 (Rattus norvegicus, Hippocampal neuron, treatment between DIV9-13, read-out: EC50^cilia (cilia rescue)): 15 nM
COc1cccc(-c2cc(F)ccc2[C@H]2Cc3nc(N)nc(C)c3C(=O)N2)n1 [NPV-HSP-990, (R)-2-amino-7-((R)-4-fluoro-2-(6-methoxypyridin-2-yl)phenyl)-4-methyl-7,8-dihydropyrido[4,3-d]pyrimidin-5(6H)-one]			not observed	
CO[C@H]1C[C@@H]2CC[C@@H](C)[C@@](O)(O2)C(=O)C(=O)N2CCCC[C@H]2C(=O)O[C@H]([C@H](C)C[C@@H]2CC[C@@H](O)[C@H](OC)C2)CC(=O)[C@H](C)/C=C(\C)[C@@H](O)[C@@H](OC)C(=O)[C@H](C)C[C@H](C)/C=C/C=C/C=C/1C [rapamycin]	Neither of the Hsp90 inhibitors nor rapamycin rescued ciliation	Neither rapamycin nor a four-day 17-AGG treatment regimen was able to rescue the cilia		ciliation (rapamycin 20 nM acute (1 day) treatment): no effect; ciliation (rapamycin 20 nM for eight days between DIV5-13): significant increase; ciliation (rapamycin 20 nM for four days between DIV9-13): significant increase; ciliation (rapamycin 20 nM, later ages (DIV20) in culture): no effect
CN(C)c1cc2c(cc1Sc1nc3c(N)nccc3n1CCNCC(C)(C)C)OCO2 [CUDC-305, 4-amino-2-[[6-(dimethylamino)-1,3-benzodioxol-5-yl]thio]-N-(2,2-dimethylpropyl)-1H-imidazo[4,5-c]pyridine-1-ethanamine]			No increase	
